Measurements from the kinase profiling compilation of Christmann-Franck et al. (2016).

What was measured:
Experiment in all cases: KINOMEscan competition binding
Conditions in all cases: compound 10.0 µM
PLK2 (human) = PLK2 (human) (UniProt Q9NYY3)
MYLK2 (human) = MYLK2 (human) (UniProt Q9H1R3)
MAPKAPK2 (human) = MAPKAPK2 (human) (UniProt P49137)
AURKA (human) = AURKA (human) (UniProt O14965)
PIP5K1C (human) = PIP5K1C (human) (UniProt O60331)
KIT (human) = KIT (human) (UniProt P10721)
CRK2 (P.falciparum) = CRK2 (P.falciparum) (UniProt P61075)
EIF2AK2 (human) = EIF2AK2 (human) (UniProt P19525)
RPS6KA4 KD2 (human) = RPS6KA4 KD2 (human) (UniProt O75676)
PRKCI (human) = PRKCI (human) (UniProt P41743)
ANKK1 (human) = ANKK1 (human) (UniProt Q8NFD2)
IRAK1 (human) = IRAK1 (human) (UniProt P51617)
MAP4K3 (human) = MAP4K3 (human) (UniProt Q8IVH8)
GRK1 (human) = GRK1 (human) (UniProt Q15835)
SIK1 (human) = SIK1 (human) (UniProt P57059)
MAP2K1 (human) = MAP2K1 (human) (UniProt Q02750)
YES1 (human) = YES1 (human) (UniProt P07947)
CHEK2 (human) = CHEK2 (human) (UniProt O96017)
STK17A (human) = STK17A (human) (UniProt Q9UEE5)
ULK3 (human) = ULK3 (human) (UniProt Q6PHR2)
MAP3K10 (human) = MAP3K10 (human) (UniProt Q02779)
MAP2K7 (human) = MAP2K7 (human) (UniProt O14733)
ROCK1 (human) = ROCK1 (human) (UniProt Q13464)
PAK1 (human) = PAK1 (human) (UniProt Q13153)
FGFR4 (human) = FGFR4 (human) (UniProt P22455)
CaMK1 (human) = CaMK1 (human) (UniProt Q14012)
CSNK2A2 (human) = CSNK2A2 (human) (UniProt P19784)
MAP3K15 (human) = MAP3K15 (human) (UniProt Q6ZN16)
SYK (human) = SYK (human) (UniProt P43405)
MATK (human) = MATK (human) (UniProt P42679)
STK17B (human) = STK17B (human) (UniProt O94768)
STK24 (human) = STK24 (human) (UniProt Q9Y6E0)
RPS6KA1 KD2 (human) = RPS6KA1 KD2 (human) (UniProt Q15418)
GSK3B (human) = GSK3B (human) (UniProt P49841)
GAK (human) = GAK (human) (UniProt O14976)
[1] = system: ABL1 (human), P00519 [Y253F]
MERTK (human) = MERTK (human) (UniProt Q12866)
PIK3CG (human) = PIK3CG (human) (UniProt P48736)
CSF1R (human) = CSF1R (human) (UniProt P07333)
SRC (human) = SRC (human) (UniProt P12931)

Chain of MAP3K10 (human) (Q02779 whole entry, looked up): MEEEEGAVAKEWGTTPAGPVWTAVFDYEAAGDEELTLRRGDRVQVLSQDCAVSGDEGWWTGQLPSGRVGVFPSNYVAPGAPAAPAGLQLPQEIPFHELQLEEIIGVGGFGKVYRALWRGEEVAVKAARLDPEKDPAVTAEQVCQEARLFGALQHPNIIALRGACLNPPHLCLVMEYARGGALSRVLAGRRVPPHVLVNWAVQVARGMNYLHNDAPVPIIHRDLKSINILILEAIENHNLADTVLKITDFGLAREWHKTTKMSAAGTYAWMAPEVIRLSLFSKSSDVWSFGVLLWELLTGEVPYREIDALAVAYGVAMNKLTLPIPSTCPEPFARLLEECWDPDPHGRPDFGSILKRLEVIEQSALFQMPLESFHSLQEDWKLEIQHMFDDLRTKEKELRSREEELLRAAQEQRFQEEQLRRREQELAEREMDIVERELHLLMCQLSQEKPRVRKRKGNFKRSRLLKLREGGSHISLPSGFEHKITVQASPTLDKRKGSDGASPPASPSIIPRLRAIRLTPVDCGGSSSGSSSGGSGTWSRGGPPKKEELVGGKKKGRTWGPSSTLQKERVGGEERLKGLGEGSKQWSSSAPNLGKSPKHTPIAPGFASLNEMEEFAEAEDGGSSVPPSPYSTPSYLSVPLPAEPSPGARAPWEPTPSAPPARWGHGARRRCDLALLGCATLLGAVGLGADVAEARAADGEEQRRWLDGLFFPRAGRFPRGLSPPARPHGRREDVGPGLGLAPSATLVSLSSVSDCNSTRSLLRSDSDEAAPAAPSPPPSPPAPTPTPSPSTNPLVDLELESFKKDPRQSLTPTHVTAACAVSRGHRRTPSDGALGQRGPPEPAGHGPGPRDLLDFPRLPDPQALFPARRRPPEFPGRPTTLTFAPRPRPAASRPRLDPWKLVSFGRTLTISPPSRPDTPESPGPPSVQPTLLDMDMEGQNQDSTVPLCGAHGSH
Chain of MYLK2 (human) (Q9H1R3 whole entry, looked up): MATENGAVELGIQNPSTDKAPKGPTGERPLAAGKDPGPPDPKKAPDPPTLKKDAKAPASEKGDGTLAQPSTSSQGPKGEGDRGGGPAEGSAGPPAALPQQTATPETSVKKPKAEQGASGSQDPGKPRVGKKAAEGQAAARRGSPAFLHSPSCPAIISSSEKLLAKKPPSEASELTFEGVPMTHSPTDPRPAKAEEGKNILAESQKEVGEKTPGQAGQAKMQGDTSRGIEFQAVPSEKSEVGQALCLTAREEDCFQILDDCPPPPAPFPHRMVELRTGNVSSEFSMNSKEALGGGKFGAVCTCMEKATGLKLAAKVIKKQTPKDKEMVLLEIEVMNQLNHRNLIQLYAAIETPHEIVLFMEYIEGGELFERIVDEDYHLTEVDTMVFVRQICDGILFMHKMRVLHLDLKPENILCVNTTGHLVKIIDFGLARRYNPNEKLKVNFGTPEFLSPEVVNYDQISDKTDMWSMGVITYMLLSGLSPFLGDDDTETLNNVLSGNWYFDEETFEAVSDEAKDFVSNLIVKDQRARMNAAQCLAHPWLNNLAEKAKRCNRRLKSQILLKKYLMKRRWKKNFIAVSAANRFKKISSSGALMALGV
Chain of STK17B (human) (O94768 whole entry, looked up): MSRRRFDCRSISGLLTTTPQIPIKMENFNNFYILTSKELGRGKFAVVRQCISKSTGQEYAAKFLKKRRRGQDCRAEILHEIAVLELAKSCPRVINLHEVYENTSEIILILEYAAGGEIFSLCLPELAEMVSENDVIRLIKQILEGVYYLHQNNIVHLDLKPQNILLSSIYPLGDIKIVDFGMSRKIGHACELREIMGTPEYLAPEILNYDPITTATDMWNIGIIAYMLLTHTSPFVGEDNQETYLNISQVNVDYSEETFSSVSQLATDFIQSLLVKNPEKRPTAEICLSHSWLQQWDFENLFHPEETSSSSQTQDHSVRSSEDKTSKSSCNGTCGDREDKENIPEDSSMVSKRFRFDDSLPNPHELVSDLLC
Chain of MAP2K1 (human) (Q02750 whole entry, looked up): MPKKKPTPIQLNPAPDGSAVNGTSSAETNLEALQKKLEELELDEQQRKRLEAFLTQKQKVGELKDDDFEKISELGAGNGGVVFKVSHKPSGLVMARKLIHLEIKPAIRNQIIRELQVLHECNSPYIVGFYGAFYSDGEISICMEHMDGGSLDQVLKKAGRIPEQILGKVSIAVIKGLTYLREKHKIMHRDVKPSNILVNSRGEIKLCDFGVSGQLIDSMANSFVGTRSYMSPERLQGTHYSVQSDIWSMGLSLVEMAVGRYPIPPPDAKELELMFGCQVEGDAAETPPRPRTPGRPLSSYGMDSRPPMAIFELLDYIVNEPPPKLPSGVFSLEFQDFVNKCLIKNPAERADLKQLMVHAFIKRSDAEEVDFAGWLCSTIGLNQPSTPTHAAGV
Chain of PLK2 (human) (Q9NYY3 whole entry, looked up): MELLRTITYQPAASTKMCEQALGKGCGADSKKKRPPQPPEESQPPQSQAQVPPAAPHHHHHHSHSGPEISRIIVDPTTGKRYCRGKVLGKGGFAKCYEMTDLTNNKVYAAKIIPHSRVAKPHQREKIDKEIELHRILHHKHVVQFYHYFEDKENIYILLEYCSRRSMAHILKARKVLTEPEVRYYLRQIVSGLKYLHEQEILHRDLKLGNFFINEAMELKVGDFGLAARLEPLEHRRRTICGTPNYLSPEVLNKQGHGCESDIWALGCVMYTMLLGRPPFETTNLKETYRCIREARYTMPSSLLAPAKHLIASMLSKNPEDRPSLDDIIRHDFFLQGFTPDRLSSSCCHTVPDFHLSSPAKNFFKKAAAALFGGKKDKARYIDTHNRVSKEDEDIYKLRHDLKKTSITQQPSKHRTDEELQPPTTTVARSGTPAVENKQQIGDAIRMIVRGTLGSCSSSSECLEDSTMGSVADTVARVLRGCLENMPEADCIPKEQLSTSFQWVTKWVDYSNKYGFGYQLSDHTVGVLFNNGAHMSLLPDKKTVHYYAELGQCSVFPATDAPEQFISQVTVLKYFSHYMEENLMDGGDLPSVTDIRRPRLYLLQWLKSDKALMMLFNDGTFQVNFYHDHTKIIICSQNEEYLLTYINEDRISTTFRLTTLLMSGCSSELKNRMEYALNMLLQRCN
Chain of ANKK1 (human) (Q8NFD2 whole entry, looked up): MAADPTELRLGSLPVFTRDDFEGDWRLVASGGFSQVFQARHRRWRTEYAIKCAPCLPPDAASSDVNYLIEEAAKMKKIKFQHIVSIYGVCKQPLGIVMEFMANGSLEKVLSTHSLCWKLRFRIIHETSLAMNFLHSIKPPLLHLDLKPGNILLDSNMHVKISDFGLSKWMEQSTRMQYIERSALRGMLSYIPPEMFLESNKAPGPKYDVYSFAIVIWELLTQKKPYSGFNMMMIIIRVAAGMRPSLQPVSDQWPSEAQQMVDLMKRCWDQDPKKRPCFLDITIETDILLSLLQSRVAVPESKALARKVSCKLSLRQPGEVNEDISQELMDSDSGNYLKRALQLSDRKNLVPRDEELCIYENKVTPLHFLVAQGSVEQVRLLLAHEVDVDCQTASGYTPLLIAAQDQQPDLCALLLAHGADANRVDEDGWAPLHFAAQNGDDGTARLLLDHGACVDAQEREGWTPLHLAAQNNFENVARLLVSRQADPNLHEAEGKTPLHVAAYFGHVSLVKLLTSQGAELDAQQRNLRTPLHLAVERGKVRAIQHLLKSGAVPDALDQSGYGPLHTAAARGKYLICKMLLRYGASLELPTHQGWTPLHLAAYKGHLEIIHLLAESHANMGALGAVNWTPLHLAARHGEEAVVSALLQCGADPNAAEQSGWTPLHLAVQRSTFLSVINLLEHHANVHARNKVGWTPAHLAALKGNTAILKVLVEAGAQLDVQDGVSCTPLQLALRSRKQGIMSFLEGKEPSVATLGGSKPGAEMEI
Chain of CHEK2 (human) (O96017 whole entry, looked up): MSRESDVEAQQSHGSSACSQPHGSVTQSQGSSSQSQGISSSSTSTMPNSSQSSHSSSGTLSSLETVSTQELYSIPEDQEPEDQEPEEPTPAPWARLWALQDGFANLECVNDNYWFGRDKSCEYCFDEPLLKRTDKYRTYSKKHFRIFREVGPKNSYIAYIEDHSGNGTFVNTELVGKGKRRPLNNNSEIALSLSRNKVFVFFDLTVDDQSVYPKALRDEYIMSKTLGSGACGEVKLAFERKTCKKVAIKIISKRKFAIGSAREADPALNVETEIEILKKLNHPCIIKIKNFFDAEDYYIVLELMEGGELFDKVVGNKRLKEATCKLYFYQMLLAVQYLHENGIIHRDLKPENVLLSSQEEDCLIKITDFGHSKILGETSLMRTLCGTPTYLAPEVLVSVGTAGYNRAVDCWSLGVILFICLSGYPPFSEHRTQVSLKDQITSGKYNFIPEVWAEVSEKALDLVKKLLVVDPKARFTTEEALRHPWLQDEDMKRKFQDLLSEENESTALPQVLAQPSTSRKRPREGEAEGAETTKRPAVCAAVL
Chain of EIF2AK2 (human) (P19525 whole entry, looked up): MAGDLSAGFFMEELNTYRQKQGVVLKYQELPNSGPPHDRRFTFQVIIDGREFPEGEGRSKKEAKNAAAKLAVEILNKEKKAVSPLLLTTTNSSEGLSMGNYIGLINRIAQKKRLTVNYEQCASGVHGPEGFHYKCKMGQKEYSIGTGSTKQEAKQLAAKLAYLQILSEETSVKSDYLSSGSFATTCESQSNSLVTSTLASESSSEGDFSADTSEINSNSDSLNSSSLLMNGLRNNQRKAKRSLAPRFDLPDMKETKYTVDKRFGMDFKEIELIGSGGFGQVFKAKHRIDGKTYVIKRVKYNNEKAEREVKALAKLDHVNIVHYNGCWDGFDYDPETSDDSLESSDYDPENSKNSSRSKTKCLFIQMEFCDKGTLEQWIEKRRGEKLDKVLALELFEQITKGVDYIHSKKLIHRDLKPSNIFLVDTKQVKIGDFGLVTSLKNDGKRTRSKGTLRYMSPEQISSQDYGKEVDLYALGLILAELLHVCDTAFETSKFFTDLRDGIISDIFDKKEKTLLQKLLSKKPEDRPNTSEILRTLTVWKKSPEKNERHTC

SMILES	kinase still bound, per cent of control (PLK2 (human)) [%]	kinase still bound, per cent of control (MYLK2 (human)) [%]	kinase still bound, per cent of control (MAPKAPK2 (human)) [%]	kinase still bound, per cent of control (AURKA (human)) [%]	kinase still bound, per cent of control (PIP5K1C (human)) [%]	kinase still bound, per cent of control (CRK2 (P.falciparum)) [%]	kinase still bound, per cent of control (EIF2AK2 (human)) [%]	kinase still bound, per cent of control (RPS6KA4 KD2 (human)) [%]	kinase still bound, per cent of control (PRKCI (human)) [%]	kinase still bound, per cent of control (ANKK1 (human)) [%]	kinase still bound, per cent of control (IRAK1 (human)) [%]	kinase still bound, per cent of control (MAP4K3 (human)) [%]	kinase still bound, per cent of control (GRK1 (human)) [%]	kinase still bound, per cent of control (SIK1 (human)) [%]	kinase still bound, per cent of control (MAP2K1 (human)) [%]	kinase still bound, per cent of control (YES1 (human)) [%]	kinase still bound, per cent of control (CHEK2 (human)) [%]	kinase still bound, per cent of control (STK17A (human)) [%]	kinase still bound, per cent of control (ULK3 (human)) [%]	kinase still bound, per cent of control (MAP3K10 (human)) [%]	other results
CNC(=O)c1cc(Oc2ccc(NC(=O)Nc3ccc(Cl)c(C(F)(F)F)c3)cc2)ccn1	71	43	100	80	87	94	73	89	100	100	70	54	100	100	100	69	100	45	92	73	kinase still bound, per cent of control (KIT (human)): 0%; kinase still bound, per cent of control (MAP2K7 (human)): 88%; kinase still bound, per cent of control (ROCK1 (human)): 74%; kinase still bound, per cent of control (PAK1 (human)): 62%; kinase still bound, per cent of control (FGFR4 (human)): 65%; kinase still bound, per cent of control (CaMK1 (human)): 82%; kinase still bound, per cent of control (CSNK2A2 (human)): 100%; kinase still bound, per cent of control (MAP3K15 (human)): 100%; kinase still bound, per cent of control (SYK (human)): 88%; kinase still bound, per cent of control (MATK (human)): 100%; kinase still bound, per cent of control (STK17B (human)): 59%; kinase still bound, per cent of control (STK24 (human)): 97%; kinase still bound, per cent of control (RPS6KA1 KD2 (human)): 100%; kinase still bound, per cent of control (GSK3B (human)): 100%; kinase still bound, per cent of control (GAK (human)): 80%
NC(=O)Nc1cc(-c2cccc(F)c2)sc1C(=O)N[C@@H]1CCCNC1	40	67	0	22	27	100	3.4	0.35	11	1.2	0	0.35	0.6	0.3	0	0.2	3.8	0.55	0	1.2	kinase still bound, per cent of control [1]: 0%; kinase still bound, per cent of control (MERTK (human)): 0.05%; kinase still bound, per cent of control (PIK3CG (human)): 100%; kinase still bound, per cent of control (MAP2K7 (human)): 80%; kinase still bound, per cent of control (PAK1 (human)): 1.2%; kinase still bound, per cent of control (FGFR4 (human)): 13%; kinase still bound, per cent of control (CaMK1 (human)): 2%; kinase still bound, per cent of control (CSNK2A2 (human)): 5.9%; kinase still bound, per cent of control (CSF1R (human)): 0%; kinase still bound, per cent of control (MAP3K15 (human)): 28%; kinase still bound, per cent of control (SYK (human)): 0.05%; kinase still bound, per cent of control (MATK (human)): 34%; kinase still bound, per cent of control (STK17B (human)): 2%; kinase still bound, per cent of control (STK24 (human)): 0.3%; kinase still bound, per cent of control (RPS6KA1 KD2 (human)): 1.4%; kinase still bound, per cent of control (SRC (human)): 0.05%; kinase still bound, per cent of control (GSK3B (human)): 41%; kinase still bound, per cent of control (GAK (human)): 2.9%
O=C1NC(=O)/C(=C/c2ccc3nccc(-c4ccncc4)c3c2)S1	29	46	74	69	28	93	20	63	67	47	0.25	67	22	96	1.8	84	57	0.2	39	60	kinase still bound, per cent of control [1]: 68%; kinase still bound, per cent of control (MERTK (human)): 14%; kinase still bound, per cent of control (PIK3CG (human)): 0%; kinase still bound, per cent of control (MAP2K7 (human)): 38%; kinase still bound, per cent of control (ROCK1 (human)): 51%; kinase still bound, per cent of control (PAK1 (human)): 86%; kinase still bound, per cent of control (FGFR4 (human)): 59%; kinase still bound, per cent of control (CaMK1 (human)): 65%; kinase still bound, per cent of control (CSNK2A2 (human)): 1.2%; kinase still bound, per cent of control (MAP3K15 (human)): 100%; kinase still bound, per cent of control (SYK (human)): 62%; kinase still bound, per cent of control (MATK (human)): 50%; kinase still bound, per cent of control (STK17B (human)): 0.6%; kinase still bound, per cent of control (STK24 (human)): 87%; kinase still bound, per cent of control (RPS6KA1 KD2 (human)): 19%; kinase still bound, per cent of control (SRC (human)): 69%; kinase still bound, per cent of control (GSK3B (human)): 66%; kinase still bound, per cent of control (GAK (human)): 0%
